Measurements from the supplement of paper PMC11061612.

What was measured:
GI-1 (Glioblastoma) [1] = assay: Bliss excess, mean over the matrix (fraction); higher = more synergy
Outline: (§1)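 Bliss excess equals the observed combination effect minus the expected value EA + EB − EA·EB, where EA and EB are the effects of each agent alone. Combination Emax is the second-highest inhibition within the matrix. Inhibition was scaled from CellTiter-Glo 2.0 luminescence, with 0 set by vehicle wells and 1 by blank wells, after 72 hours of two-drug dosing of cells plated in 1536-well plates.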

[2] = test system: VMRC-LCD (Lung Adenocarcinoma); assay: as above
Outline: as §1

[3] = test system: JHH-7 (Hepatocellular Carcinoma); assay: as above
Outline: as §1

EW-3 (Ewing's Sarcoma) [4] = assay: as above
Outline: as §1

[5] = test system: LC4-1 (B-Lymphoblastic Leukemia); assay: as above
Outline: as §1

[6] = test system: HSC-2 (Oral Cavity Carcinoma); assay: as above
Outline: as §1

[7] = test system: OCUM-1 (Gastric Carcinoma); assay: as above
Outline: as §1

[8] = test system: SCC-9 (Oral Cavity Carcinoma); assay: as above
Outline: as §1

[9] = test system: KINGS-1 (Low Grade Glioma); assay: as above
Outline: as §1

[10] = test system: TGBC11TKB (Gastric Carcinoma); assay: as above
Outline: as §1

[11] = test system: OCUB-M (Breast Carcinoma); assay: as above
Outline: as §1

[12] = test system: SNU-C1 (Colorectal Carcinoma); assay: as above
Outline: as §1

NB7 (Neuroblastoma) [13] = assay: as above
Outline: as §1

[14] = test system: H-EMC-SS (Chondrosarcoma); assay: as above
Outline: as §1

[15] = test system: NCI-N87 (Gastric Carcinoma); assay: as above
Outline: as §1

GI-1 (Glioblastoma) [16] = assay: combination Emax (second highest fraction inhibited in the dose matrix, 72 h); higher = more inhibition; extreme values may be limits of the assay
Outline: as §1

[17] = test system: VMRC-LCD (Lung Adenocarcinoma); assay: as above
Outline: as §1

[18] = test system: JHH-7 (Hepatocellular Carcinoma); assay: as above
Outline: as §1

EW-3 (Ewing's Sarcoma) [19] = assay: as above
Outline: as §1

[20] = test system: LC4-1 (B-Lymphoblastic Leukemia); assay: as above
Outline: as §1

[21] = test system: HSC-2 (Oral Cavity Carcinoma); assay: as above
Outline: as §1

[22] = test system: OCUM-1 (Gastric Carcinoma); assay: as above
Outline: as §1

[23] = test system: SCC-9 (Oral Cavity Carcinoma); assay: as above
Outline: as §1

[24] = test system: KINGS-1 (Low Grade Glioma); assay: as above
Outline: as §1

[25] = test system: TGBC11TKB (Gastric Carcinoma); assay: as above
Outline: as §1

[26] = test system: OCUB-M (Breast Carcinoma); assay: as above
Outline: as §1

[27] = test system: SNU-C1 (Colorectal Carcinoma); assay: as above
Outline: as §1

NB7 (Neuroblastoma) [28] = assay: as above
Outline: as §1

[29] = test system: H-EMC-SS (Chondrosarcoma); assay: as above
Outline: as §1

[30] = test system: NCI-N87 (Gastric Carcinoma); assay: as above
Outline: as §1

| SMILES | Bliss excess (GI-1 (Glioblastoma) [1]) | Bliss excess [2] | Bliss excess [3] | Bliss excess (EW-3 (Ewing's Sarcoma) [4]) | Bliss excess [5] | Bliss excess [6] | Bliss excess [7] | Bliss excess [8] | Bliss excess [9] | Bliss excess [10] | Bliss excess [11] | Bliss excess [12] | Bliss excess (NB7 (Neuroblastoma) [13]) | Bliss excess [14] | Bliss excess [15] | combination Emax (GI-1 (Glioblastoma) [16]) | combination Emax [17] | combination Emax [18] | combination Emax (EW-3 (Ewing's Sarcoma) [19]) | combination Emax [20] | combination Emax [21] | combination Emax [22] | combination Emax [23] | combination Emax [24] | combination Emax [25] | combination Emax [26] | combination Emax [27] | combination Emax (NB7 (Neuroblastoma) [28]) | combination Emax [29] | combination Emax [30] |
| --- | --- | --- | --- | --- | --- | --- | --- | --- | --- | --- | --- | --- | --- | --- | --- | --- | --- | --- | --- | --- | --- | --- | --- | --- | --- | --- | --- | --- | --- | --- |
| Cc1c2c(nn1C)CSCc1cc(n(C)n1)CSc1cc(c3ccccc3c1)OCCCc1c(C(=O)O)n(C)c3c-2c(Cl)ccc13 [AZD5991] + Nc1ccn([C@@H]2O[C@H](CO)[C@@H](O)C2(F)F)c(=O)n1 [Gemcitabine] (first compound max 1 µM, 7x7, partner max 0.3 µM) | -0.0002 | 0.0333 | -0.0114 | 0.0096 | 0.0158 | 0.0273 | -0.0565 | -0.0216 | -0.0719 | -0.0006 | 0.0283 | 0.0119 | 0.0093 | -0.005 | -0.0095 | 0.86 | 0.539 | 0.314 | 0.935 | 0.975 | 0.992 | 0.656 | 0.237 | 0.195 | 0.929 | 1 | 0.449 | 0.844 | 0.594 | 0.61 |
| C[C@@H]1COCCN1c1cc(C2([S@](C)(=N)=O)CC2)nc(-c2ccnc3[nH]ccc23)n1 [AZD6738] + Nc1ccn([C@@H]2O[C@H](CO)[C@@H](O)C2(F)F)c(=O)n1 [Gemcitabine] (first compound max 10 µM, 7x7, partner max 0.3 µM) | 0.0797 | 0.0526 | 0.085 | -0.0176 | 0.0935 | 0.0604 | -0.0316 | 0.024 | -0.023 | -0.0137 | 0.028 | -0.0261 | 0.0831 | 0.006 | 0.0265 | 0.933 | 0.74 | 0.722 | 0.939 | 0.988 | 0.971 | 0.727 | 0.47 | 0.388 | 0.936 | 0.947 | 0.721 | 0.903 | 0.545 | 0.738 |
| C=CCn1c(=O)c2cnc(Nc3ccc(N4CCN(C)CC4)cc3)nc2n1-c1cccc(C(C)(C)O)n1 [AZD1775] + Nc1ccn([C@@H]2O[C@H](CO)[C@@H](O)C2(F)F)c(=O)n1 [Gemcitabine] (first compound max 1 µM, partner max 0.3 µM) | 0.0649 | -0.0497 | -0.0298 | 0.0204 | 0.0478 | 0.0227 | 0.0616 | 0.0215 | -0.0065 | 0.0011 | 0.0679 | -0.0308 | 0.0441 | 0.014 | -0.0481 | 0.916 | 0.6 | 0.399 | 0.904 | 0.945 | 0.947 | 0.656 | 0.375 | 0.341 | 0.918 | 0.955 | 0.485 | 0.721 | 0.649 | 0.735 |
| CC1(C)CCC(CN2CCN(c3ccc(C(=O)NS(=O)(=O)c4ccc(NCC5CCOCC5)c([N+](=O)[O-])c4)c(Oc4cnc5[nH]ccc5c4)c3)CC2)=C(c2ccc(Cl)cc2)C1 [Venetoclax] + CS(=O)(=O)CCNCc1ccc(-c2ccc3ncnc(Nc4ccc(OCc5cccc(F)c5)c(Cl)c4)c3c2)o1 [Lapatinib] (first compound max 1 µM, 7x7, partner max 10 µM) | 0.0283 | -0.0139 | -0.0408 | 0.0862 | 0.0233 | -0.0145 | -0.0196 | -0.036 | -0.0466 | 0.0197 | -0.0181 | -0.0495 | -0.0348 | -0.0278 | -0.0029 | 0.284 | 0.256 | 0.335 | 0.55 | 1 | 0.8 | 0.178 | 0.955 | 0.208 | 0.325 | 0.518 | 0.0031 | 0.117 | 0.188 | 0.931 |
| O=C(c1cc(Cc2n[nH]c(=O)c3ccccc23)ccc1F)N1CCN(C(=O)C2CC2)CC1 [Olaparib] + CN(CC[C@H](CSC1=CC=CC=C1)NC2=C(C=C(C=C2)S(=O)(=O)NC(=O)C3=CC=C(C=C3)N4CCC(CC4)[C@H](C5=CC=CC=C5C6=CC=C(C=C6)Cl)O)S(=O)(=O)C(F)(F)F)CCO [AZD4320] (first compound max 10 µM, 7x7, partner max 1 µM) | 0.0255 | -0.029 | -0.0326 | 0.0125 | 0.0153 | 0.0039 | 0.0129 | -0.0395 | -0.0792 | 0.0082 | -0.0115 | -0.055 | -0.0251 | 0.0051 | -0.0729 | 0.302 | 0.114 | 0.203 | 0.904 | 1 | 0.201 | 0.834 | 0.398 | 0.646 | 0.42 | 0.454 | 0.613 | 0.393 | 0.422 | 0.503 |
